# Reference: ChEMBL document CHEMBL5500381, “Antiviral drug discovery: Pyrimidine entry inhibitors for Zika and dengue viruses” (Eur J Med Chem, 2024)
# What was measured:
# [1] = Cytotoxicity against African green monkey Vero cells assessed as cell viability measured after 72 hrs by MTT assay; type: toxicity, cell-based; details: chlorocebus sabaeus
# [2] = test system: dengue virus type 2; assay: Anti-viral activity against DENV-2 Thailand/16681/1984 strain infected in african green monkey Vero cells at 0.1 MOI assessed as reduction in virus yield measured after 48 hrs by virus reduction assay; type: functional, organism-based; details: Thailand/16681/1984, Vero
# [3] = Selectivity index, ratio of CC50 for cytotoxicity against African green monkey Vero cells to EC50 for anti-viral activity against DENV-2 Thailand/16681/1984 strain; type: toxicity, cell-based; details: read-out: Selectivity Index
# [4] = test system: Zika virus; assay: Anti-viral activity against ZIKV Argentine strain INEVH116141 infected in african green monkey Vero cells at 0.1 MOI assessed as reduction in virus yield measured after 48 hrs by virus reduction assay; type: functional, organism-based
# [5] = Selectivity index, ratio of CC50 for cytotoxicity against African green monkey Vero cells to EC50 for anti-viral activity against ZIKV Argentine strain INEVH116141; type: toxicity, cell-based; details: read-out: Selectivity Index
# [6] = Solubility of the compound in phosphate-buffered saline solution (PBS,pH 7.4) incubated for 24 hrs by shake-flask method; type: physicochemical
# [7] = Solubility of the compound in simulated intestinal fluid (SIF,pH 6.8) incubated for 24 hrs by shake-flask method; type: ADME
# [8] = Solubility of the compound in simulated gastric fluid (SGF,pH 1.2) incubated for 24 hrs by shake-flask method; type: ADME
compound,measurement,setting,value
FC(F)(F)c1cc(Nc2ccc(Cl)cc2)nc(NCCN2CCCCC2)n1,CC50 at 72 h,[1],18.8 µM
same,EC50,[2],10 µM
same,selectivity ratio,[3],1.88
same,EC50,[4],10 µM
same,selectivity ratio,[5],1.88
Fc1ccc(CNc2cc(C(F)(F)F)nc(NCCN3CCCCC3)n2)cc1,CC50 at 72 h,[1],47.6 µM
same,EC50,[2],16.1 µM
same,selectivity ratio,[3],2.96
same,EC50,[4],16.8 µM
same,selectivity ratio,[5],2.84
Nc1ccc(-c2ccc(Nc3cc(C(F)(F)F)nc(NCCN4CCCCC4)n3)cc2)cc1,CC50 at 72 h,[1],17.8 µM
same,EC50,[2],> 10 µM
same,selectivity ratio,[3],< 2
same,EC50,[4],> 10 µM
same,selectivity ratio,[5],< 2
Nc1ccc(CNc2cc(C(F)(F)F)nc(NCCN3CCCCC3)n2)cc1,CC50 at 72 h,[1],8.92 µM
c1ccc(-c2ccc(Nc3ccnc(NCCN4CCCCC4)n3)cc2)cc1,solubility thermodynamic at 24 h,[6],32 µg/mL
same,solubility thermodynamic at 24 h,[7],324 µg/mL
same,solubility thermodynamic at 24 h,[8],108 µg/mL
CN(Cc1ccc(Cl)cc1)c1cc(C(F)(F)F)nc(NCCN2CCCCC2)n1,CC50 at 72 h,[1],8.18 µM
CC1(C)CC(Nc2nc(Nc3ccc(-c4ccccc4)cc3)cc(C(F)(F)F)n2)CC(C)(C)N1,CC50 at 72 h,[1],2.06 µM
CC1(C)CC(Nc2nc(Nc3ccc(-c4ccccc4)cc3)c3sccc3n2)CC(C)(C)N1,CC50 at 72 h,[1],6.4 µM
same,EC50,[2],4.95 µM
same,selectivity ratio,[3],1.3
same,EC50,[4],4.15 µM
same,selectivity ratio,[5],1.54
COc1ccc(CNc2cc(C(F)(F)F)nc(NCCN3CCCCC3)n2)cc1,CC50 at 72 h,[1],38.2 µM
same,EC50,[2],> 20 µM
same,selectivity ratio,[3],< 2
same,EC50,[4],12.5 µM
same,selectivity ratio,[5],3.07
FC(F)(F)c1cc(NCc2cccnc2)nc(NCCN2CCCCC2)n1,CC50 at 72 h,[1],> 200 µM
same,EC50,[2],> 50 µM
same,selectivity ratio,[3],< 4
same,EC50,[4],> 50 µM
same,selectivity ratio,[5],< 4
FC(F)(F)c1cc(Nc2ccc(C3CCCCC3)cc2)nc(NCCN2CCCCC2)n1,CC50 at 72 h,[1],8.39 µM
Fc1cc(Cl)ccc1CNc1cc(C(F)(F)F)nc(NCCN2CCCCC2)n1,CC50 at 72 h,[1],9.07 µM
